From patent publication US8246966B2, “Trypanosome microsome system and uses thereof” (priority 2006, dated 2012)

Columns and labels:
[1] = test system: Blood stream form T. brucei CA427; test: Trypanocidal activity against cultured blood stream form T. brucei (Example 2); format: cell-based, Trypanosoma brucei; settings: for IC50: read-out: concentration at which fifty percent of parasites were killed (IC50)
Experimental: Blood stream form T. brucei CA427 were grown in HMI-9 media to the cell density of 10^6. The cells were then transferred to 96 well plates with the addition of different concentrations of MAL3-101, MAL3-51, CJ-21,058 or equisetin. In controls, DMSO was added. Cell density was calculated at the end of 24 hours, and the graph was plotted.
Cell culture. Blood stream form T. brucei CA427 was cultured in HMI-9 medium (Hirumi and Hirumi, 1994, Parasitol Today; 10:80-84) to a maximum density of 10^6/ml. For use in drug sensitivity studies, cells were seeded at […], and one hundred microliters added to each well of a 96-well plate, with or without test compounds at stated concentrations, as discussed in Brief Descriptions of FIGS. 1-4. In controls, DMSO, the solvent for the compounds, was added. Cells were counted after 24 or 48 hours, using a hemocytometer, and the data graphed. All experiments were performed in triplicates.

[2] = test system: T. brucei microsomes (TbRM); test: Import of full length VSG—117 into TbRM with T. brucei cytosol (Example 10); format: biochemical, Trypanosoma brucei
Experimental: FIGS. 18A and 18B. MAL3-101, equisetin, and CJ-21,058 inhibit VSG translocation into TbRM. FIG. 18A presents the protocol used for import of VSG—117. In FIG. 18B, VSG—117 mRNA was translated in rabbit reticulocyte lysate with 1.5 equivalents T. brucei cytosol pretreated with MAL3-101 (3 μM), MAL3-51 (10 μM), CJ-21,058 (20 μM) or equisetin (50 μM)) for 60 minutes. The reaction mixtures received cycloheximide (50 μg/ml, final concentration) and were incubated with TbRM (one equivalent). After incubation at 37° C. for 60 minutes, reaction mixtures were transferred to an ice-water bath and treated with proteinase K (30 μg/ml, final concentration) for 60 minutes. Proteins were resolved by SDS-PAGE and detected by phosphorimaging. Lane 1 is VSG—117 incubated with TbRM; lane 2 is VSG—117 digested with proteinase K after incubation with TbRM; lane 3 is VSG—117 incubated with MAL3-101 in the presence of TbRM; lane 4 is VSG—117 and TbRM incubated with MAL3-101 and then digested with proteinase K; lane 5 is VSG—117 incubated with MAL3-51 and TbRM; lane 6 is VSG—117 incubated with TbRM in the presence of equisetin; lane 7 is VSG—117 incubated with ThRM; lane 8 is VSG—117 incubated with equisetin and digested with proteinase K; lane 9 is VSG—117 incubated with CJ-21,058 and TbRM; lane 10 is VSG—117 incubated with TbRM and CJ-21,058 and digested with proteinase K. For quantitation, each proteasedigested sample was compared to a control experiment containing the drug but without protease addition. Thus, lane 2 is compared with lane 1 while lane 4 is compared to lane 3, and so on.
Protein Import Into TbRM. Two μg of RNA encoding VSG—117 (or VSG_MVAT7) was translated in 30 μl of a reaction mixture containing 15 μl rabbit reticulocyte lysate, 60 μM amino acid mixture (-Met, -Cys), and 2.4 μCi [^35S]Promix. […] The gels were dried, and radioactive polypeptides were detected with a phosphorimager (Personal Molecular Imager FX, (BioRad). Data were quantified with QuantityOne software (BioRad), and graphs were plotted with DeltaGraph (Red Rock software). […]

SMILES | trypanocidal activity (in words) [1] | concentration at which one hundred percent of parasites were killed (IC100) ([1]; cultured T. brucei) [nM] | IC50 ([1]; cultured T. brucei) [µM] | VSG—117 protected from proteinase K ([2]; MAL3-101 present (3 μM in FIG. 18B legend), DMSO approximately 80%) [%] | inhibition of import of VSG—117 into TbRM compared to DMSO control ([2]; CJ-21,058 (20 μM in FIG. 18B legend)) [%] | inhibition of VSG—117 translocation into TbRM ([2]; equisetin (50 μM in FIG. 18B legend)) [%]
CCCCCCN(C(=O)CCCCCN1C(=O)NC(c2ccc(-c3ccccc3)cc2)C(C(=O)OCc2ccccc2)=C1C)C(C(=O)NCCCC)c1ccc(OCC(=O)OC)c(C(=O)OC)c1 (centres unmarked) [MAL3-101] | killed T. brucei at sub-micromolar level | 500 | 0.125 | 13 |  | 
C/C=C/C1C(C)=CC2CC(C)CCC2C1(C)/C(O)=C1/C(=O)C(CO)N(C)C1=O (centres unmarked) [CJ-21,058] |  |  | 7 |  | 70 | 
C/C=C/[C@@H]1C=C[C@@H]2C[C@H](C)CC[C@H]2[C@]1(C)/C(O)=C1/C(=O)[C@H](CO)N(C)C1=O [equisetin] |  |  | 3.3 |  |  | 95
